From patent publication US6900181B2, “Pharmaceutical composition” (Renovo Limited, priority 1995, dated 2005)

Assays:
[1] = system: linear full thickness incisions on the dorsal skin; assay: Rat full thickness incisional wound healing and scarring model, intradermal injection to the wound margins; assay type: in vivo, Sprague Dawley rats; settings: for effect on wound healing (histological analysis): 10, 20, 40 mM at wounding and daily for following seven days, compared with PBS controls; for immunocytochemical analysis (fibronectin staining, monocyte/macrophage profiles): vs PBS controls; for histological analysis: 40 days post wounding; for scarring / dermal architecture (histology): 80 days post wounding
Description: Adult male Sprague Dawley rats (200-250 g) were anaesthetised using equal parts halothane, nitrous oxide and oxygen. Four linear full thickness incisions, 1 cm in length to the depth of the panniculus carnosus were made on the dorsal skin, 1 cm from the midline and 5 and 8 cm from the base of the skull. The wounds were left unsutured to heal by secondary intention. Experimental treatments were administered by intradermal injection to the wound margins (50 μl down each wound margin). At selected time points animals were killed by chloroform overdose. Wounds were excised from the surrounding tissue and bisected. Half the wounds were rapidly frozen in OCT for cryosection and immunoctyochemistry and half fixed in formaldehyde for wax embedding and histology. Wax sections were routinely stained with haematoxylin and eosin, picrosirius red and Massons Lille trichrome, to display collagen fibre thickness, density and orientation to enable assessment of scar quality. […] A range of doses (10 mM, 20 mM and 40 mM) was studied for each sugar, with PBS (phosphate buffered saline) as a control. Treatments were administered at the time of wounding and each day for the following seven days. Two animals per dose were studied at each of the three time points (7, 40 and 80 days post wounding) for each compound. […]. […] Treatments were administered at the time of wounding and each day for the following two days. One animal per dose was studied at each of the two time points (7 and 80 days post wounding). Total n=4. […] Department of Pharmacy, University of Manchester. A single concentration (20 mM) of this compound was studied, with PBS as a control. The time of administration varied to the previous experiments. Animals were split into three groups and treated on day 0 alone, days 0, 2 and 4, or days 0 to 7 inclusive. Two animals per treatment regime were studied at each of the three time points (3, 7 and 80 days) Total n=18.

wounds = assay: Experimental work treating wounds with other sugars; assay type: in vivo; settings: for effect on wound healing: compared with controls; for effect on scarring: in vivo
Excerpt: Galactose-6-phosphate and glycerol-3-phosphate have no effect upon either wound healing or scarring.

[2] = target: M6P/IGF II (insulin-like growth factor II) receptor (Homo sapiens, UniProt P11717); assay: ELISA-type assay using purified M6P/IGF II receptor; assay type: binding; settings: initial results; compared with M6P
Excerpt: In addition to the animal studies an ELISA-type assay using purified M6P/IGF II (insulin-like growth factor II) receptor was developed to determine if these analogues of M6P bind to the M6P/IGF II receptor.

[3] = 7 days post wounding, 10, 20, 40 mM
[4] = 10, 20, 40 mM, F1P effect particularly at 40 mM

M6P/IGF II (insulin-like growth factor II) receptor, sequence (P11717 41-2491): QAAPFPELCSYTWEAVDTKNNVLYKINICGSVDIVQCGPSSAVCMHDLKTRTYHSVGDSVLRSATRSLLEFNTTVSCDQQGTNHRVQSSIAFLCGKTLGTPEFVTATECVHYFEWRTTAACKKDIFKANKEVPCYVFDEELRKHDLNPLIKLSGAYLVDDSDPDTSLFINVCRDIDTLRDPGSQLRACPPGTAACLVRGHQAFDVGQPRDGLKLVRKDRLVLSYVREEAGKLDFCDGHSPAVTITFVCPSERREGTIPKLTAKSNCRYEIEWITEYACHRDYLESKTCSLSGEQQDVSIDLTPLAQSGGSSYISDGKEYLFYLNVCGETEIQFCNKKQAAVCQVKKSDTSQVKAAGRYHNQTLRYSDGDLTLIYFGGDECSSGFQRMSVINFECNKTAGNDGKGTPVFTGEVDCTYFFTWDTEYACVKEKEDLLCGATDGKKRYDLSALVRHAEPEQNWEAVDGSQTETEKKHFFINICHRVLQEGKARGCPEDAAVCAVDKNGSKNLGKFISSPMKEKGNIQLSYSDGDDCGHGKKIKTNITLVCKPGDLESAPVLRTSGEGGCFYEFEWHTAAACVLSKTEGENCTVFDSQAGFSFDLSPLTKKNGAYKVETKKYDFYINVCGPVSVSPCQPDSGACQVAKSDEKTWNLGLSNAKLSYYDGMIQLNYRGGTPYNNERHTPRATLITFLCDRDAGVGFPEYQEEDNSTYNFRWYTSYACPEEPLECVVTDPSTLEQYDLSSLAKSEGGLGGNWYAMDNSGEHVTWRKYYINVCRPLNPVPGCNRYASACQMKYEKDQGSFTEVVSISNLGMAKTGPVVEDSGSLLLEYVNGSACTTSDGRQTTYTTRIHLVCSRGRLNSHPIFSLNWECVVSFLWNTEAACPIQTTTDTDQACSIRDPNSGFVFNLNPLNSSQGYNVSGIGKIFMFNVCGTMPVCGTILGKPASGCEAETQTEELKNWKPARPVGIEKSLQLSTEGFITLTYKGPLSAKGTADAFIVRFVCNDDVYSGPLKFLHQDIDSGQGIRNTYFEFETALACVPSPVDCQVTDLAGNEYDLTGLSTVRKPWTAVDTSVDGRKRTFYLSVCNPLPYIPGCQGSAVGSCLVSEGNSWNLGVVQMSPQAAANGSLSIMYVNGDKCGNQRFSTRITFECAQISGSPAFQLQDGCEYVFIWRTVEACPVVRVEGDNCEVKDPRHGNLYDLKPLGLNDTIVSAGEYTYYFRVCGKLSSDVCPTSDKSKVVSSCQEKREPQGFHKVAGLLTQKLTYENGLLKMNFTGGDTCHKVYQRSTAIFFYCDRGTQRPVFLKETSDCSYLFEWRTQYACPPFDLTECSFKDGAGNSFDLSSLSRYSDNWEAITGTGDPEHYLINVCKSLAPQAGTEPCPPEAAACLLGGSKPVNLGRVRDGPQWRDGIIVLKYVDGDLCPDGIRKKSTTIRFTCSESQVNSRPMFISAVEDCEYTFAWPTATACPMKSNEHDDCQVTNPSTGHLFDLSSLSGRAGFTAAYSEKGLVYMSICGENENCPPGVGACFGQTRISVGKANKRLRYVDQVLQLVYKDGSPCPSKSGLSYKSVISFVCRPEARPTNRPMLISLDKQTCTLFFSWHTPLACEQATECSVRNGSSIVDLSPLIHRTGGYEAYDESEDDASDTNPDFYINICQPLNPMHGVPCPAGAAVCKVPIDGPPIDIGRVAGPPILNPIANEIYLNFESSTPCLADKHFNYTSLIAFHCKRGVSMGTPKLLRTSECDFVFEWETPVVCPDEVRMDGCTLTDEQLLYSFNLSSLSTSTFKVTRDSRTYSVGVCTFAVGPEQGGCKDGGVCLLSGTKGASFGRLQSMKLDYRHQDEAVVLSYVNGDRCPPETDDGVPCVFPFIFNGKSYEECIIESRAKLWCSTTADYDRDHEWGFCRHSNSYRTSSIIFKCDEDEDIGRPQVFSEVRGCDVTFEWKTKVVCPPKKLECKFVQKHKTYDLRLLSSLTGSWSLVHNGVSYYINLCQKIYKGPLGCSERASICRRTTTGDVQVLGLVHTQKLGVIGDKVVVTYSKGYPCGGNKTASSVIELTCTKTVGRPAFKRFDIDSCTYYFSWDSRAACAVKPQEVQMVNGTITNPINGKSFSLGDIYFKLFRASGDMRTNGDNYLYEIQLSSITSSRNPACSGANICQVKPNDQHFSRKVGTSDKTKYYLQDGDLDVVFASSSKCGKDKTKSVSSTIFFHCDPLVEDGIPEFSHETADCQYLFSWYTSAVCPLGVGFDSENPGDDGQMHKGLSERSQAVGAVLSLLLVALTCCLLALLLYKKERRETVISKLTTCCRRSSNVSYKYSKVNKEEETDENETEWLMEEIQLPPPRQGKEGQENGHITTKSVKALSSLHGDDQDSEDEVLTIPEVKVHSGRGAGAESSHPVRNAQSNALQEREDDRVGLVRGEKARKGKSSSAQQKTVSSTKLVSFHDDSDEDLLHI

Row | SMILES | effect on wound healing (histological analysis) ([1]; 7 days post wounding) | immunocytochemical analysis (fibronectin staining, monocyte/macrophage profiles) [1, 3] | histological analysis ([1]; 10, 20, 40 mM) | scarring / dermal architecture (histology) [1, 4] | effect on wound healing (wounds) | effect on scarring (wounds) | other results
1 | O=C(COP(=O)(O)O)[C@@H](O)[C@H](O)[C@H](O)CO [F1P, fructose-1-phosphate] | neither F1P or Malt1P had any effect on wound healing | treated wounds resembled controls | inconsistent, with no clear trend | reduce scarring more significantly | – | – | –
2 | O=C[C@H](O)[C@@H](O)[C@@H](O)[C@H](O)COP(=O)(O)O [Galactose-6-phosphate] | – | – | – | – | no effect | no effect | –
3 | O=C[C@@H](O)[C@@H](O)[C@H](O)[C@H](O)COP(=O)(O)O [M6P, mannose-6-phosphate] | – | – | – | – | – | – | histological analysis of treated wounds vs PBS controls ([1]; 7 days post wounding, 10 or 20 mM, or 10 mM + 10 mM M6P, at wounding and each day for following two days): none of the treated wounds appeared different to PBS controls; scarring / dermal architecture (histology) ([1]; 10 or 20 mM, or 10 mM + 10 mM M6P, at wounding and each day for following two days, vs controls): improvement in scarring
4 | O=P(O)(O)O[C@H]1O[C@H](CO)[C@@H](O[C@H]2O[C@H](CO)[C@@H](O)[C@H](O)[C@H]2O)[C@H](O)[C@H]1O [Malt1P, maltose-1-phosphate] | neither F1P or Malt1P had any effect on wound healing | treated wounds resembled controls | inconsistent, with no clear trend | improve the dermal architecture very slightly | – | – | binding to the M6P/IGF II receptor [2]: does not bind
5 | O=P(O)(O)OCC(O)CO (stereo not drawn) [glycerol-3-phosphate] | – | – | – | – | no effect | no effect | –
